Here are results for 48 compounds from patent US10034886B2, “GLP-1 receptor modulators” (Celgene International II SÀRL, priority 2014, dated 2018).

For this test, the target named is T1, GLP-1R (Homo sapiens, UniProt P43220).
T1 construct: host or cells: GLP-1R CRE-bla CHO-K1 cells
T1 sequence (P43220 24-463): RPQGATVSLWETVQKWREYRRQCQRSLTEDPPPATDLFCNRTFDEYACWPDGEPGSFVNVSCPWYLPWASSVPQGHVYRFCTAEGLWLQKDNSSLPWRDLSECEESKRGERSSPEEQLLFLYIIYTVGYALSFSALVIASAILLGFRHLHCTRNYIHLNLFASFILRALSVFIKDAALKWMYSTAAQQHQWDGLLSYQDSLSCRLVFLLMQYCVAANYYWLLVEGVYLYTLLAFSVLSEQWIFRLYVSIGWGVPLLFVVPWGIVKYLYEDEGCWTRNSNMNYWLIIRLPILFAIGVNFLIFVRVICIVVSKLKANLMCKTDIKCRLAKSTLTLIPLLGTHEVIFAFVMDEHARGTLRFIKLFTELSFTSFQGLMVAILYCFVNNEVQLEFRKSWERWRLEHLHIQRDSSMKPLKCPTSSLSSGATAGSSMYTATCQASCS
T1 sequence (P01275 100-127 partner limits assumed): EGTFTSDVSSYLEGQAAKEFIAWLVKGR
Put plainly: EC20 GLP-1(9-36) PAM cAMP assay: dose response of compound in the presence of fixed concentration of GLP-1(9-36). It counts as cell-based. The following applies: dose response of compound in presence of fixed concentration of GLP-1(9-36), GLP-1R CRE-bla CHO-K1 cells, read-out: EC20 GLP-1(9-36) PAM EC50. The procedure, abridged:
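Positive allosteric modulation read as cAMP accumulation: compound titrations (12 points) combined with an EC20 level of GLP-1(9-36) on CHO-K1 GLP-1R CRE-bla cells, IBMX present, 30 min, 37 °C, pH 7.4 buffer. Luminescence converted to cAMP via standards; non-linear fit gave EC50 and Emax.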
For orientation: Changes in cAMP serve as a functional read-out for many G protein-coupled receptors.
For the compound `CCCCCc1noc(-c2cnc(-c3ccc(C[C@H](NC(=O)c4ccc(C(C)(C)C)cc4)C(=O)NCCC(=O)O)cc3)nc2)n1` [Compound 753], the EC50 is 2.5 to 5 µM. On to `CCCCCCCc1noc(-c2cnc(-c3ccc(C[C@H](NC(=O)c4ccc(C(C)(C)C)cc4)C(=O)NCCC(=O)O)cc3)nc2)n1` [Compound 754], for which the EC50 lay within 5 to 10 µM. For the compound `CCCCCCCCc1noc(-c2cnc(-c3ccc(C[C@H](NC(=O)c4ccc(C(C)(C)C)cc4)C(=O)NCCC(=O)O)cc3)nc2)n1` [Compound 755], the half-maximal effective concentration (EC50) fell in the range of 2.5 to 5 µM. Then `CCCCCCc1noc(-c2ccc(-c3cnc(-c4ccc(C[C@H](NC(=O)c5ccc(C(C)(C)C)cc5)C(=O)NCCC(=O)O)cc4)nc3)cc2)n1` [Compound 756], with 5 to 10 µM. With `CC(C)(C)c1ccc(C(=O)N[C@@H](Cc2ccc(-c3ncc(-c4nc(-c5cccc(Oc6ccccc6)c5)no4)cn3)cc2)C(=O)NCCC(=O)O)cc1` [Compound 757] the figure was 0.8 to 2.5 µM; with `CC(C)(C)c1ccc(C(=O)N[C@@H](Cc2ccc(-c3ncc(-c4nc(-c5cccc(Cl)c5)no4)cn3)cc2)C(=O)NCCC(=O)O)cc1` [Compound 758], 2.5 to 5 µM.

Regarding `CCCCOc1cccc(-c2noc(-c3cnc(-c4ccc(C[C@H](NC(=O)c5ccc(C(C)(C)C)cc5)C(=O)NCCC(=O)O)cc4)nc3)n2)c1` [Compound 759], the EC50 is 0.8 to 2.5 µM. Then `CCCCCCOc1cccc(-c2noc(-c3cnc(-c4ccc(C[C@H](NC(=O)c5ccc(C(C)(C)C)cc5)C(=O)NCCC(=O)O)cc4)nc3)n2)c1` [Compound 760], with 0.8 to 2.5 µM. For `CCCOc1ccc(-c2cnc(-c3ccc(C[C@H](NC(=O)c4ccc(C(C)(C)C)s4)C(=O)N4CC[C@H](C(=O)O)C4)cc3)nc2)cc1` [Compound 761], the EC50 lay within 2.5 to 5 µM. As to `CCCCCOc1ccc(-c2cnc(-c3ccc(C[C@H](NC(=O)c4ccc(C(C)(C)C)s4)C(=O)N4CC[C@H](C(=O)O)C4)cc3)nc2)cc1` [Compound 762], the EC50 lay within 5 to 10 µM. As to `CCCCCCOc1ccc(-c2cnc(-c3ccc(C[C@H](NC(=O)c4ccc(C(C)(C)C)s4)C(=O)N4CC[C@H](C(=O)O)C4)cc3)nc2)cc1` [Compound 763], the EC50 fell in the range of 0.8 to 2.5 µM. With `CCCCCCCCOc1ccc(-c2cnc(-c3ccc(C[C@H](NC(=O)c4ccc(C(C)(C)C)s4)C(=O)N4CC[C@H](C(=O)O)C4)cc3)nc2)cc1` [Compound 764], the EC50 is < 0.8 µM. Then `CCCCCCCc1ccc(-c2cnc(-c3ccc(C[C@H](NC(=O)c4ccc(C(C)(C)C)s4)C(=O)N4CC[C@H](C(=O)O)C4)cc3)nc2)cc1` [Compound 765], with 0.8 to 2.5 µM; and `CCCCCC(=O)c1ccc(-c2cnc(-c3ccc(C[C@H](NC(=O)c4ccc(C(C)(C)C)s4)C(=O)N4CC[C@H](C(=O)O)C4)cc3)nc2)cc1` [Compound 766], with 2.5 to 5 µM. With `CC(C)(C)COc1ccc(-c2cnc(-c3ccc(C[C@H](NC(=O)c4ccc(C(C)(C)C)s4)C(=O)N4CC[C@H](C(=O)O)C4)cc3)nc2)cc1` [Compound 767] the figure was 2.5 to 5 µM; with `CC(C)(C)c1ccc(-c2cnc(-c3ccc(C[C@H](NC(=O)c4ccc(C(C)(C)C)s4)C(=O)N4CC[C@H](C(=O)O)C4)cc3)nc2)cc1` [Compound 768], 0.8 to 2.5 µM. Then `CC(C)(C)c1ccc(C(=O)N[C@@H](Cc2ccc(-c3ncc(-c4ccc(-c5ccccc5)cc4)cn3)cc2)C(=O)N2CC[C@H](C(=O)O)C2)s1` [Compound 769], with 5 to 10 µM.

As to `CC(C)CCCCOc1ccc(-c2cnc(-c3ccc(C[C@H](NC(=O)c4ccc(C(C)(C)C)s4)C(=O)N[C@H](C)C(=O)O)cc3)nc2)cc1` [Compound 770], the EC50 was < 0.8 µM. For `CC(C)CCCOc1ccc(-c2cnc(-c3ccc(C[C@H](NC(=O)c4ccc(C(C)(C)C)s4)C(=O)N[C@H](C)C(=O)O)cc3)nc2)cc1` [Compound 771], the EC50 lay in the range of 0.8 to 2.5 µM. Then `CC(C)CCCCOc1ccc(-c2cnc(-c3ccc(C[C@H](NC(=O)c4ccc(C(C)(C)C)s4)C(=O)N4CC[C@H](C(=O)O)C4)cc3)nc2)cc1` [Compound 772], with < 0.8 µM; and `CC(C)CCCOc1ccc(-c2cnc(-c3ccc(C[C@H](NC(=O)c4ccc(C(C)(C)C)s4)C(=O)N4CC[C@H](C(=O)O)C4)cc3)nc2)cc1` [Compound 773], with 0.8 to 2.5 µM; and `CC(C)(C)c1ccc(C(=O)N[C@@H](Cc2ccc(-c3ncc(-c4ccc(OCCC5CCCCC5)cc4)cn3)cc2)C(=O)N2CC[C@H](C(=O)O)C2)s1` [Compound 774], with 0.8 to 2.5 µM.

`CC(C)(C)COc1ccc(-c2cnc(-c3ccc(C[C@H](NC(=O)c4ccc(C(C)(C)C)s4)C(=O)N4CC(C(=O)O)C4)cc3)nc2)cc1` [Compound 775]: the EC50 was < 0.8 µM. Regarding `CCCCCCCOc1ccc(-c2cnc(-c3ccc(C[C@H](NC(=O)c4ccc(C(C)(C)C)s4)C(=O)N4CC(C(=O)O)C4)cc3)nc2)cc1C` [Compound 776], the EC50 is < 0.8 µM. With `CCCCCCOc1ccc(-c2cnc(-c3ccc(C[C@H](NC(=O)c4ccc(C(C)(C)C)s4)C(=O)N4CC(C(=O)O)C4)cc3)nc2)cc1` [Compound 777] the figure was 0.8 to 2.5 µM; with `CCCCCCCCOc1ccc(-c2cnc(-c3ccc(C[C@H](NC(=O)c4ccc(C(C)(C)C)s4)C(=O)N4CC(C(=O)O)C4)cc3)nc2)cc1` [Compound 778], < 0.8 µM. `CC(C)(C)c1ccc(C(=O)N[C@@H](Cc2ccc(-c3ncc(-c4ccc(OC5CCCC5)cc4)cn3)cc2)C(=O)N2CC(C(=O)O)C2)s1` [Compound 779]: the EC50 fell in the range of 0.8 to 2.5 µM.

For the compound `CC(C)(C)c1ccc(C(=O)N[C@@H](Cc2ccc(-c3ncc(-c4ccc(OC5CC5)cc4)cn3)cc2)C(=O)N2CC(C(=O)O)C2)s1` [Compound 780], the EC50 fell in the range of 2.5 to 5 µM.

As for `CC(C)(C)c1ccc(C(=O)N[C@@H](Cc2ccc(-c3ncc(-c4ccc(OCC5CC5)cc4)cn3)cc2)C(=O)N2CC(C(=O)O)C2)s1` [Compound 781], the EC50 is 2.5 to 5 µM. In the case of `CC(C)Oc1ccc(-c2cnc(-c3ccc(C[C@H](NC(=O)c4ccc(C(C)(C)C)s4)C(=O)N4CC(C(=O)O)C4)cc3)nc2)cc1` [Compound 782], the EC50 lay within 0.8 to 2.5 µM. Then `CC(C)(C)c1ccc(-c2cnc(-c3ccc(C[C@H](NC(=O)c4ccc(C(C)(C)C)s4)C(=O)N4CC(C(=O)O)C4)cc3)nc2)cc1` [Compound 783], with 0.8 to 2.5 µM. Then `COc1ccc(-c2cnc(-c3ccc(C[C@H](NC(=O)c4ccc(C(C)(C)C)s4)C(=O)N4CC(C(=O)O)C4)cc3)nc2)cc1` [Compound 784], with 5 to 10 µM; and `CCCOc1ccc(-c2cnc(-c3ccc(C[C@H](NC(=O)c4ccc(C(C)(C)C)s4)C(=O)N4CC(C(=O)O)C4)cc3)nc2)cc1` [Compound 785], with 2.5 to 5 µM; and `CCCCOc1ccc(-c2cnc(-c3ccc(C[C@H](NC(=O)c4ccc(C(C)(C)C)s4)C(=O)N4CC(C(=O)O)C4)cc3)nc2)cc1` [Compound 786], with 0.8 to 2.5 µM. For `CCCCCOc1ccc(-c2cnc(-c3ccc(C[C@H](NC(=O)c4ccc(C(C)(C)C)s4)C(=O)N4CC(C(=O)O)C4)cc3)nc2)cc1` [Compound 787], the EC50 was in the range of 0.8 to 2.5 µM. With `CC(C)(C)c1ccc(C(=O)N[C@@H](Cc2ccc(-c3ncc(-c4ccc(C(F)(F)F)cc4)cn3)cc2)C(=O)N2CC(C(=O)O)C2)s1` [Compound 788] the figure was 5 to 10 µM; with `CC(C)COc1ccc(-c2cnc(-c3ccc(C[C@H](NC(=O)c4ccc(C(C)(C)C)s4)C(=O)N4CC(C(=O)O)C4)cc3)nc2)cc1` [Compound 789], 2.5 to 5 µM; with `CCCCCCCOc1ccc(-c2cnc(-c3ccc(C[C@H](NC(=O)c4ccc(C(C)(C)C)s4)C(=O)N[C@H](C)C(=O)O)cc3)nc2)c(C)c1` [Compound 790], 0.8 to 2.5 µM. `CCCCCCCOc1cc(C)c(-c2cnc(-c3ccc(C[C@H](NC(=O)c4ccc(C(C)(C)C)s4)C(=O)N[C@H](C)C(=O)O)cc3)nc2)c(C)c1` [Compound 791]: the EC50 lay within 0.8 to 2.5 µM. On to `CC(C)CCCCOc1ccc(-c2cnc(-c3ccc(C[C@H](NC(=O)c4ccc(C(C)(C)C)cc4)C(=O)N[C@H](C)C(=O)O)cc3)nc2)cc1` [Compound 792], for which the EC50 lay within 0.8 to 2.5 µM. Then `CC(C)CCCOc1ccc(-c2cnc(-c3ccc(C[C@H](NC(=O)c4ccc(C(C)(C)C)cc4)C(=O)N[C@H](C)C(=O)O)cc3)nc2)cc1` [Compound 793], with 0.8 to 2.5 µM; and `C[C@@H](NC(=O)[C@H](Cc1ccc(-c2ncc(-c3ccc(OCCC4CCCCC4)cc3)cn2)cc1)NC(=O)c1ccc(C(C)(C)C)cc1)C(=O)O` [Compound 794], with 0.8 to 2.5 µM; and `CC(C)CCCCOc1ccc(-c2cnc(-c3ccc(C[C@H](NC(=O)c4ccc(C(C)(C)C)s4)C(=O)N4CC(C(=O)O)C4)cc3)nc2)cc1` [Compound 795], with < 0.8 µM. With `CC(C)(C)CCOc1ccc(-c2cnc(-c3ccc(C[C@H](NC(=O)c4ccc(C(C)(C)C)s4)C(=O)N4CC(C(=O)O)C4)cc3)nc2)cc1` [Compound 796] the figure was < 0.8 µM; with `CCC(C)COc1ccc(-c2cnc(-c3ccc(C[C@H](NC(=O)c4ccc(C(C)(C)C)s4)C(=O)N4CC(C(=O)O)C4)cc3)nc2)cc1` (stereo partly drawn) [Compound 797], 0.8 to 2.5 µM; with `CC(C)CCCOc1ccc(-c2cnc(-c3ccc(C[C@H](NC(=O)c4ccc(C(C)(C)C)s4)C(=O)N4CC(C(=O)O)C4)cc3)nc2)cc1` [Compound 798, (S)-1-(2-(5-(tert-butyl)thiophene-2-carboxamido)-3-(4-(5-(4-((4-methylpentyl)oxy)phenyl)-pyrimidin-2-yl)phenyl)propanoyl)azetidine-3-carboxylic acid], 0.8 to 2.5 µM. Then `CC(C)CCOc1ccc(-c2cnc(-c3ccc(C[C@H](NC(=O)c4ccc(C(C)(C)C)s4)C(=O)N4CC(C(=O)O)C4)cc3)nc2)cc1` [Compound 799], with 0.8 to 2.5 µM; and `COc1ccc(-c2cnc(-c3ccc(C[C@H](NC(=O)c4ccc(C(C)(C)C)cc4)C(=O)N[C@H](C)C(=O)O)cc3)nc2)cc1` [Compound 800], with 5 to 10 µM.

The term EC50 denotes the concentration that produces a half-maximal response.
